Laboratory results taken from US20260272895A1, “METHODS AND KITS FOR DELIVERY OF COMPOUNDS INTO CELLS” (Yale University, priority 2023, published 2026).

Test system: brain cell types
Assay: In vivo two-photon imaging of mouse cortex after topical cortical administration of fluorophores
Method: Briefly, animals are anaesthetized via intraperitoneal injections of ketamine/xylazine or via inhaled isoflurane. A region of the skull (3×3 mm) is gently removed with a high-speed drill and the underlying dura is removed. A small glass coverslip is placed over the skull to allow long term optical access for in vivo imaging. Labeling with fluorescent dyes is performed either via intravenous injections or topically application to the cortical surface for 20 min prior to glass cover placement. After recovery, in vivo images are acquired using a two-photon microscope (Bruker Technologies) equipped with a multimodal (fixed wavelength 1040 nm and tunable wavelength) InSight X3 two-photon laser (Spectra Physics) and 20× water immersion objective (Zeiss 1.0N.A.). The two-photon laser is appropriately tuned to excite particular fluorescent dyes and proteins as needed. In selected cases, following in vivo imaging, mice will be sacrificed and perfused for follow up immunohistochemistry and high-resolution confocal imaging (Leica SP8) to further confirm colocalization of dyes and cells expressing particular transporters.
One-month-old wild-type mice were anesthetized using a ketamine/xylazine solution at doses of 100 mg/kg and 10 mg/kg, respectively. The fur around the skull area was shaved, and buprenex (0.1 mg per kg) and carprofen (5 mg per kg) were administered subcutaneously. Mice were kept on a heating pad at 37° C., and anesthesia was periodically monitored. The skin was treated with povidone-iodine solution, followed by cleaning with ethanol, and eye ointment was applied. A small skin section was excised to expose the skull. Thinning of the skull was performed in a circular area, followed by delicately lifting of the remaining skull without harm to the underlying brain. Within the circular region, the dura was gently removed using fine forceps, and a 4 mm cover glass was softly pressed onto the brain surface and affixed to the skull. Fluorescent dyes were applied either through intravenous injections or topically to the cortical surface for 20 minutes before placing the glass cover. A customized head bar was attached either by adhesive (for acute imaging) or permanently implanted (using dental cement, for chronic imaging) onto the skull. Mice were imaged under a two-photon microscope (Prairie Technologies) with a mode-locked MaiTai tunable laser (Spectra Physics). Imaging was performed with a 20× water immersion objective (Zeiss, 1.0NA). Images were captured at depths up to 300 μm from the pial surface using excitation wavelengths ranging from 750 to 950 nm as previously described. Mice undergoing chronic imaging received a recovery period on a heating pad post-surgery, and buprenex (0.1 mg per kg) and carprofen (5 mg per kg) were administered for 3 days.
Batches of 10 compounds were applied through the craniotomy to the cortical surface before placing a cover glass window. No additional washings were performed, and the cover glass was placed, allowing up to 3 hours of imaging of the cortical surface with a two-photon microscope. Following imaging, the data were analyzed to identify potential patterns of cell-specific labeling. […] Positive batches underwent three additional rounds of imaging, with each batch being sequentially split, until a single compound displaying cell-type-specific labeling was identified. As these compounds were not initially purified, the labeling may have resulted from fluorescent byproducts of synthesis. Consequently, large-scale synthesis, purification and characterization (FIGS. 29A-29D) of the identified compounds were conducted. The purified compounds were subsequently retested using in vivo imaging to confirm cell type specificity.
It was reasoned that the best strategy to identify fluorophores with specific affinity to certain cell types and transport mechanisms would be by direct screening in the intact in vivo brain microenvironment. […]

SMILES | Target (cell type taking up the compound in vivo (Table 1)) | labeling of other (non-endothelial) cell types (topical application to cortex) | endothelial cell labeling/uptake after topical application to the brain (topical cortical application) | cellular labeling in cortex (topical cortical administration, 50 μM, wild type mice)
O=S(=O)([O-])c1cc(S(=O)(=O)O)ccc1C1=c2cc3c4c(c2Oc2cc(Br)ccc21)CCC[N+]=4CCC3 [Compound 1, 2-(12-bromo-1,2,3,5,6,7-hexahydrochromeno[2,3-f]pyrido[3,2,1-ij]quinolin-4-ium-9-yl)-5-sulfobenzenesulfonate] | Endothelial | only endothelial cells are labeled | Highly specific labeling of endothelial cells within capillaries | –
COc1cc2c(c(OC)c1OC)-c1ccc(OC)c(=O)cc1C(NS(=O)(=O)c1ccc(-c3c4ccc(N(C)C)cc4[o+]c4cc(N(C)C)ccc34)c(S(=O)(=O)[O-])c1)CC2 (stereo not shown) [Compound 47, 2-(3,6-bis(dimethylamino)xanthylium-9-yl)-5-(N-(1,2,3,10-tetramethoxy-9-oxo-5,6,7,9-tetrahydrobenzo[a]heptalen-7-yl)sulfamoyl)benzenesulfonate] | – | – | – | labeling of endothelial processes (arrow) and cell bodies (arrowhead)
